{"source": "patent US5407927A", "about": "“Treatment of mild depression and restoration of IGF-I levels in aging by dehydroepiandrosterone” (The Regents of the University of California, priority 1993, dated 1995)", "assay_type_in_all_cases": "in vivo, human", "key": {"[1]": {"experiment": "Serum DHEA and DHEAS levels during oral DHEA (immunoassay)", "method": "FIG. 1: DHEAS and DHEA serum levels in men and women at baseline, 2 and 12 weeks of DHEA (50 mg) administration and 2 weeks after discontinuation. The horizontal solid line represents mean level during the second decade of life.\n(§1) Seventeen women and 13 men ages 40-70 in good medical health were enrolled in a clinical trial of DHEA replacement of 6 months duration. The trial was structured as a double-blind randomized placebo-controlled crossover study. […] These subjects were seen monthly and received 50 mg DHEA orally, nightly for 3 months and placebo for 3 months.\n(§2) Blood specimens were drawn from all subjects in the study at baseline (time 0) and at 2 weeks and 12 weeks after DHEA administration, and at 2 weeks after DHEA administration was discontinued. DHEA, DHEAS, androstenedione, testosterone, dihydrotestosterone, and the sex hormone binding globulin were all measured by immunoassay as described by Anderson, D.C., et al. Steroid, 1976, 28:179.\n(§3) Serum levels of testosterone, androstenedione, and dihydrotestosterone, as well as the sex-hormone binding globulin are shown in FIG. 2."}, "[2]": {"test_system": "testosterone, androstenedione, and dihydrotestosterone", "experiment": "Serum androgen levels during oral DHEA (immunoassay)", "details": "50 mg DHEA orally, nightly", "method": "(§4) FIG. 2: Hormonal levels during DHEA (50 mg) therapy (represented by stippled area) in men and women. ADIONE (androstenedione); TEST (testosterone); DHT(dihydrotestosterone); SHBG(sex-hormone binding globulin). The shaded area represents the duration of DHEA treatment.\nas §1, §2, §3"}, "[3]": {"test_system": "sex-hormone binding globulin", "experiment": "Serum sex-hormone binding globulin during oral DHEA (immunoassay)", "details": "50 mg DHEA orally, nightly", "method": "as §4, §1, §2, §3"}, "[4]": {"experiment": "Body composition (% body fat by bioelectric impedance, BMI)", "details": "DHEA 50 mg orally, nightly, 3 months, mean ± standard error", "method": "The term \"BMI\" means body mass index which is body weight (kg)/height (m^2).\nas §1\n(§5) Insulin sensitivity and glucose effectiveness were measured by euglycemic hyperinsulinemic clamp (Bergman, R.N. J. Clin. Invest., 1987, 79:790-800) and rapid intravenous glucose tolerance test (Bergman, R.N., et al. Amer. J. Physiol., 1979, 236:667-677) and % body fat as measured by bioelectric impedance (Lukaski, H. Amer. J. Nutrition, 1987, 46:537) were measured on all patients after DHEA of placebo treatment. The glucose disposal rate was also measured using Bergman, 1987 (supra)."}, "[5]": {"experiment": "Glucose metabolism (euglycemic hyperinsulinemic clamp, rapid intravenous glucose tolerance test)", "details": "DHEA 50 mg orally, nightly, 3 months, mean ± standard error", "method": "as §1, §5"}, "[6]": {"experiment": "Serum cholesterol, triglycerides, HDL and LDL (standard enzymatic methods)", "details": "for CHOLESTEROL / HDL / LDL / TG: DHEA (50 mg) × 3 months, mean ± standard error", "method": "as §1\n(§6) Serum cholesterol, triglycerides, apolipoproteins A1 and B, and the HDL and LDL lipoproteins were measured on all serum specimens. Cholesterol, triglycerides, HDL and LDL were measured by standard enzymatic methods. (Allain, C.A., et al., Clin. Chem. 1974, 20:470.) Apolipoproteins were measured by immunoassay methods. Immunoassay methods for measurement of apolipoproteins are described in the literature. […] All other lipid or lipoprotein levels were unchanged by the DHEA administration."}, "[7]": {"experiment": "Serum apolipoproteins (immunoassay)", "details": "DHEA (50 mg) × 3 months, mean ± standard error", "method": "as §1, §6"}, "[8]": {"experiment": "Sense of well-being or mood-elevating effect (question to subjects)", "details": "DHEA 50 mg, 3 months", "method": "as §1\nSense of well-being or mood-elevating effect was reported in response to a question: \"Have you noted any effect, good or bad during this treatment?\n(§7) Libido was self-reported by the patients and scored on a visual analog scale. Subjects were evaluated at the end at the 3 month period of DHEA or placebo treatment."}, "[9]": {"experiment": "Self-reported libido (visual analog scale)", "details": "end of 3 month DHEA period", "method": "as §1, §7"}, "[10]": {"test_system": "insulin-like growth factor I (IGF-I)", "experiment": "Serum insulin-like growth factor I (immunoassay)", "details": "DHEA 50 mg, 3 months", "method": "(§8) Blood specimens are drawn from patients immediately prior to the onset of DHEA administration and preferentially at 30 days after the beginning of treatment and at periodic intervals thereafter determined by the treating physician. Serum IGF-I and IGF BP-I levels are determined by immunoassay on these blood specimens. There are a variety of immunoassay methods available for determination of IGF-I and IGF BP-I which are reported in the literature and which are known to those of skill in the art. (Breier, B.H., et al., J. of Endocrinol., 1991, 128:347-357 and Pekonen, F. et al. J. Immunoassay, 1989, 10:325-337.\nas §1\n(§9) Insulin-like growth factor I and insulin-like growth factor binding protein I were measured in serum specimens by immunoassay as described previously."}, "[11]": {"test_system": "insulin-like growth factor binding protein I (IGF BP-I)", "experiment": "Serum insulin-like growth factor binding protein I (immunoassay)", "details": "DHEA 50 mg, 3 months", "method": "as §8, §1, §9"}, "[12]": {"experiment": "Pharmacokinetic study comparing oral and sublingual administration of DHEA", "details": "for Tmax: human, serum, read-out: time to peak levels of DHEA", "method": "FIG. 5: Hormonal levels in men and women after oral 50 mg DHEA (.cndot. and sublingual 50 mg. DHEA (.smallcircle. ).\nA pharmacokinetic study comparing oral and sublingual administration of DHEA was performed on the men and women subjects. DHEA, DHEAS, androstenedione, testosterone and dihydrotestosterone were measured by the immunoassay methods described above on serum specimens drawn at 30 minutes, 1 hour, 2 hours, 4 hours, 5 hours and 8 hours after dose administration. […] Peak levels of DHEA were achieved within 30 minutes with the sublingual route and 3 hours with the oral route."}, "[13]": {"experiment": "Side effects and safety parameters (physical exams, hematology, chemistry) in clinical trial", "details": "17 women and 13 men ages 40-70; 50 mg orally, nightly, 3 months", "method": "as §1"}}, "note": "Where two headings read alike, the source gives them in different places."}
{"smiles": "C[C@]12CC[C@H](O)CC1=CC[C@@H]1[C@@H]2CC[C@]2(C)C(=O)CC[C@@H]12", "note": "[DHEA, dehydroepiandrosterone]", "values": [{"measurement": "blood levels of DHEA", "setting": "[1]; adults 40-80 years old, 50 to 100 mg orally or sublingually daily, FIG. 1", "result": "in the physiological range for younger adults"}, {"measurement": "DHEAS serum levels (maintenance)", "setting": "[1]; men and women, 50 mg DHEA orally, nightly, three month trial", "result": "maintained throughout the three month trial"}, {"measurement": "DHEAS serum levels (rise)", "setting": "[1]; men and women, 50 mg DHEA orally, nightly, within 2 weeks of administration", "result": "rose to those levels seen in the second decade of life within 2 weeks of administration"}, {"measurement": "time for DHEAS levels to return to baseline after discontinuing DHEA", "setting": "[1]; men and women, after discontinuing 50 mg DHEA", "result": "≤ 2", "unit": "weeks"}, {"measurement": "androgens, particularly dihydrotestosterone and estrogens", "setting": "[2]; men", "result": "no changes in any androgens"}, {"measurement": "androgen levels (testosterone, androstenedione, dihydrotestosterone)", "setting": "[2]; women", "result": "doubling of their androgen levels"}, {"measurement": "Sex-hormone binding globulin level", "setting": "[3]", "result": "a trend of decline but this decline was not statistically significant"}, {"measurement": "% FAT", "setting": "[4]; men", "result": "21.9 ± 1.3", "unit": "%"}, {"measurement": "BMI", "setting": "[4]; men", "result": "27.0 ± 0.7", "unit": "kg/m^2"}, {"measurement": "% FAT", "setting": "[4]; women", "result": "31.3 ± 1.0", "unit": "%"}, {"measurement": "BMI", "setting": "[4]; women", "result": "24.7 ± 0.7", "unit": "kg/m^2"}, {"measurement": "GLUCOSE DISPOSAL RATE", "setting": "[5]; men", "result": "7.64 ± 0.056", "unit": "mg/kg/min"}, {"measurement": "GLUCOSE EFFECTIVENESS", "setting": "[5]; men", "result": "0.019 ± 0.001", "unit": "min⁻¹"}, {"measurement": "INSULIN SENSITIVITY", "setting": "[5]; men", "result": "3.69 ± 0.5 × 10^-4 min^-1 uU^-1 ml"}, {"measurement": "GLUCOSE EFFECTIVENESS", "setting": "[5]; women", "result": "0.024 ± 0.002", "unit": "min⁻¹"}, {"measurement": "INSULIN SENSITIVITY", "setting": "[5]; women", "result": "2.90 ± 0.4 × 10^-4 min^-1 uU^-1 ml"}, {"measurement": "CHOLESTEROL", "setting": "[6]; men", "result": "209.9 ± 9.4"}, {"measurement": "HDL", "setting": "[6]; men", "result": "44.8 ± 1.7"}, {"measurement": "LDL", "setting": "[6]; men", "result": "147.5 ± 8.5"}, {"measurement": "TG", "setting": "[6]; men", "result": "107.7 ± 10.5"}, {"measurement": "all other lipid or lipoprotein levels (change, in words)", "setting": "[6]; women and men, DHEA 50 mg, 3 months", "result": "unchanged"}, {"measurement": "HDL levels (change, in words)", "setting": "[6]; women, DHEA 50 mg, 3 months", "result": "Only a small reduction in HDL levels were seen in women"}, {"measurement": "CHOLESTEROL", "setting": "[6]; women", "result": "218.3 ± 6.9"}, {"measurement": "HDL", "setting": "[6]; women", "result": "63.4 ± 2.7"}, {"measurement": "LDL", "setting": "[6]; women", "result": "136.0 ± 4.9"}, {"measurement": "TG", "setting": "[6]; women", "result": "94.2 ± 7.4"}, {"measurement": "APO A1", "setting": "[7]; men", "result": "167.4 ± 6.1"}, {"measurement": "APO B", "setting": "[7]; men", "result": "149.8 ± 8.5"}, {"measurement": "APO A1", "setting": "[7]; women", "result": "213.7 ± 8.1"}, {"measurement": "APO B", "setting": "[7]; women", "result": "137.4 ± 5.9"}, {"measurement": "mood-elevating effect", "setting": "[8]; majority of both men and women, in retrospect", "result": "An impressive mood-elevating effect was noted in retrospect by the majority of both men and women"}, {"measurement": "responses to question on effect noted during treatment", "setting": "[8]; men and women", "result": "\"sleeping better\" \"better ability to handle stress\" \"more relaxed\", \"easier time falling asleep\", \"more energy\" and \"better moods\""}, {"measurement": "self-reported libido", "setting": "[9]", "result": "no difference was seen while subjects were on DHEA"}, {"measurement": "IGF-I (change, in words)", "setting": "[10]; men and women", "result": "statistically significant elevation"}, {"measurement": "free IGF-I (change, in words)", "setting": "[10]; men and women, inferred from IGF-I and IGF BP-I", "result": "overall increase in free IGF-I"}, {"measurement": "IGF-I increase", "setting": "[10]; men", "result": 10, "unit": "%"}, {"measurement": "IGF-I increase", "setting": "[10]; women", "result": 12, "unit": "%"}, {"measurement": "IGF BP-I (change, in words)", "setting": "[11]; men and women", "result": "decrease"}, {"measurement": "IGF BP-I decrease", "setting": "[11]; men", "result": 12, "unit": "%"}, {"measurement": "IGF BP-I decrease", "setting": "[11]; women", "result": 22, "unit": "%"}, {"measurement": "rate of absorption, sublingual versus oral", "setting": "[12]; 50 mg, men and women", "result": "absorbed most rapidly sublingually"}, {"measurement": "Tmax", "setting": "[12]; oral 50 mg", "result": "≤ 3", "unit": "h"}, {"measurement": "Tmax", "setting": "[12]; sublingual 50 mg", "result": "≤ 0.5", "unit": "h"}, {"measurement": "Safety parameters (physical exams, hematology, chemistry)", "setting": "[13]", "result": "all within normal limits"}, {"measurement": "side effects", "setting": "[13]", "result": "No side effects were reported"}]}
